{
  "source": "patent US11819511B2",
  "about": "“Composition of N-palmitoyl-ethanolamide and Rutin in co-micronized form” (EPITECH GROUP S.P.A, priority 2019, dated 2023)",
  "key": {"[1]": {"test_system": "thoracic aorta rings exposed to peroxynitrite", "assay": "Ex vivo vascular reactivity: contraction of thoracic aorta rings from norepinephrine, after complete ligation of the left carotid artery and 14 days of treatment", "type": "in vivo, C57Bl/6 strain mice", "details": "aorta rings collected day 14, exposed to peroxynitrite 1 mM, per os once a day for 14 days", "description": "(§1) (as described by Q.Xu “Mouse models of arteriosclerosis: from arterial injuries to vascular grafts” Am J Pathol. (2014); 165(1):1-10). […] Cuzzocrea et al “Superoxide: a key player in hypertension” FASEB J. […] In particular, the ex vivo measurement of vascular reactivity is carried out with the following procedures: Adult mice of the C57Bl/6 strain weighing 25-30 g are used (Envigo-Italy). The groups of animals on which the evaluations were carried out (10 animals per group) were the following: • Group 1—Animals treated per os with 10 mg/kg of co-micronized palmitoyl-ethanolamide: […] Rutin in a 1:1 ratio, suspended in 1% carboxymethylcellulose solution and with the addition of 0.5 mg/kg of pure hydroxytyrosol in the final solution. At the end of the treatments, the thoracic aortas of the animals are taken and adequately cleaned of the adherent peri-adventitious fat and 3-4 mm rings are cut out. The rings are placed in Krebs solution at pH 7.4 (Krebs solution composition: NaCl 118 mM; KCl 4.7 mM; KH2PO4 1.2 mM; CaCl2 2.5 mM; MgSO4 1.2 mM; NaHCO3 25 mM; glucose 11.7 mM). […] A voltage of 1 g is applied, and the Krebs solution is exchanged every 15 minutes. The aorta rings are exposed to a concentration of peroxynitrile 1 mM."}, "[2]": {"test_system": "thoracic aorta rings exposed to peroxynitrite", "assay": "Ex vivo vascular reactivity: endothelium-dependent release of thoracic aorta rings from acetylcholine, after complete ligation of the left carotid artery and 14 days of treatment", "type": "in vivo, C57Bl/6 strain mice", "details": "aorta rings collected day 14, exposed to peroxynitrite 1 mM, per os once a day for 14 days", "description": "as §1"}, "[3]": {"details": "Trolox equivalent; cited from earlier work"}},
  "data": [
    {"compound": "CCCCCCCCCCCCCCCC(=O)NCCO", "note": "[Group 2, palmitoyl-ethanolamide]", "values": [
      {"measurement": "Contraction (g) from Norepinephrine", "setting": "[1]; Norepinephrine 100 nM", "result": 0.20, "unit": "g"},
      {"measurement": "Contraction (g) from Norepinephrine", "setting": "[1]; Norepinephrine 1,000 nM", "result": 0.40, "unit": "g"},
      {"measurement": "Contraction (g) from Norepinephrine", "setting": "[1]; Norepinephrine 10,000 nM", "result": 0.70, "unit": "g"},
      {"measurement": "Vascular Tone-% of Pre-Contraction from Acetylcholine", "setting": "[2]; Acetylcholine 0.1 μM", "result": 99, "unit": "%"},
      {"measurement": "Vascular Tone-% of Pre-Contraction from Acetylcholine", "setting": "[2]; Acetylcholine 1.0 μM", "result": 94, "unit": "%"},
      {"measurement": "Vascular Tone-% of Pre-Contraction from Acetylcholine", "setting": "[2]; Acetylcholine 10.0 μM", "result": 85, "unit": "%"}
    ]},
    {"compound": "C[C@@H]1O[C@@H](OC[C@H]2O[C@@H](Oc3c(-c4ccc(O)c(O)c4)oc4cc(O)cc(O)c4c3=O)[C@H](O)[C@@H](O)[C@@H]2O)[C@H](O)[C@H](O)[C@H]1O", "note": "[Group 3, Rutin]", "values": [
      {"measurement": "Contraction (g) from Norepinephrine", "setting": "[1]; Norepinephrine 100 nM", "result": 0.20, "unit": "g"},
      {"measurement": "Contraction (g) from Norepinephrine", "setting": "[1]; Norepinephrine 1,000 nM", "result": 0.40, "unit": "g"},
      {"measurement": "Contraction (g) from Norepinephrine", "setting": "[1]; Norepinephrine 10,000 nM", "result": 0.70, "unit": "g"},
      {"measurement": "Vascular Tone-% of Pre-Contraction from Acetylcholine", "setting": "[2]; Acetylcholine 0.1 μM", "result": 100, "unit": "%"},
      {"measurement": "Vascular Tone-% of Pre-Contraction from Acetylcholine", "setting": "[2]; Acetylcholine 1.0 μM", "result": 96, "unit": "%"},
      {"measurement": "Vascular Tone-% of Pre-Contraction from Acetylcholine", "setting": "[2]; Acetylcholine 10.0 μM", "result": 81, "unit": "%"}
    ]},
    {"compound": "OCCc1ccc(O)c(O)c1", "note": "[hydroxytyrosol, 1-(2-hydroxy)ethyl-3,4-dihydroxybenzene]", "values": [
      {"measurement": "ORAC (Oxygen Radical Absorbance Capacity) index", "setting": "[3]", "result": "40,000 μmolTE/g"}
    ]}
  ]
}
